Data taken from patent publication US20110263454A1, “Methods of Identifying Functional Characteristics of Promoters, Transcription Modifying Proteins and Transcription Modulating Agents” (Salk Institute for Biological Studies, priority 2008, published 2011).

B1: HNF4a: Hepatocyte Nuclear Factor α (NR2A1), cDNA driver (protein, UniProt P41235 1-474, looked up)
Hepatocyte nuclear factor …: MRLSKTLVDMDMADYSAALDPAYTTLEFENVQVLTMGNDTSPSEGTNLNAPNSLGVSALCAICGDRATGKHYGASSCDGCKGFFRRSVRKNHMYSCRFSRQCVVDKDKRNQCRYCRLKKCFRAGMKKEAVQNERDRISTRRSSYEDSSLPSINALLQAEVLSRQITSPVSGINGDIRAKKIASIADVCESMKEQLLVLVEWAKYIPAFCELPLDDQVALLRAHAGEHLLLGATKRSMVFKDVLLLGNDYIVPRHCPELAEMSRVSIRILDELVLPFQELQIDDNEYAYLKAIIFFDPDAKGLSDPGKIKRLRSQVQVSLEDYINDRQYDSRGRFGELLLLLPTLQSITWQMIEQIQFIKLFGMAKIDNLLQEMLLGGSPSDAPHAHHPLHPHLMQEHMGTNVIVANTMPTHLSNGQMCEWPRPRGQAATPETPQPSPPGGSGSEPYKLLPGAVATIVKPLSAIPQPTITKQEVI

How the values were obtained:
[1] = system: hG6PD promoter; experiment: NHR-promoter luciferase screen, hG6PD promoter; assay type: cell-based, human; conditions: for Luc. act., normalized to lacZ / Normalized Luc. act., normalized to control: G6PD promoter reporter, co-transfected HR, without or with its ligand; for Normalized Luc. act., normalized to control: relative to control; for luciferase activity normalized to lacZ activity and to a control, hG6PD: hG6PD promoter-luciferase, CV-1 cells, NHR +/- ligand, control = 1.00
Procedure: (§1) The use, feasibility, and reproducibility of the functional NHR-promoter screen in a 48-well format have been tested validated. Briefly, there were co-expressed 50 ng of each NHR/NHR homodimer or NHR/RXR heterodimer with 100 ng promoter/luciferase construct and 50 ng of LacZ (as a control for transfection efficiency) in CV-1 cells using Fugene HD (Roche) as a transfection reagent (alternatively or additionally, a CMV-YFP construct can be used as a transfection control). Each of the nuclear hormone receptors that were used in these experiments was cloned into a pcDNA3.1 vector and comprised a C-terminally linked V5H6 tag. Twenty-four hours after transfection, appropriate ligands were added, where applicable, (see Table 5 for various ligands and concentrations and after 48 hrs, samples were assayed for luciferase and LacZ activity. To measure for luciferase activity 15 ul of sample was added to 30 ul of luciferase buffer (20 mM tricine, 1.07 mM MgCarbonate, 2.67 mM MgSulfate, 0.1 mM Naz-EDTA, 5 mM DTT, 5 mM ATP, 0.15 mg/ml CoA, 0.5 mM Luciferin), mixed briefly, and run in a Perkin Elmer Victor 5 luminometer. Thus, the functional NHR-promoter screen was used to observe the transcriptional activity of 29 promoters from various physiological pathways including inflammation, lipid and sugar metabolism, cholesterol transport, xenobiotic metabolism, and circadian rhythm.
(§2) The promoters that facilitate transcription of the indicated gene products that were tested using the protocols described herein are listed in the first row of the table. The nuclear hormone receptors and, where applicable, ligands that were assayed for their transcriptional effects on the promoters are listed in the first column of the table. The data represent the luciferase activity of each sample normalized to both the lacZ activity of that sample and to a control, e.g., no NHR or ligand, as customary in the art. As described previously, these normalizations allow the transcriptional activity of each reporter cell to be compared to other samples.
(§3) Tables 7-40 show the transcriptional effects of the hormone receptors, and, where applicable, ligands (orphan receptors are screened without ligand), on each individual promoter. […] The control data of each table are shown in their last rows.

[2] = system: mUCP2 promoter; experiment: NHR-promoter luciferase screen, mUCP2 promoter; assay type: cell-based, mouse; conditions: for Luc. act., normalized to lacZ / Normalized Luc. act., normalized to control: mUCP2 promoter reporter, co-transfected HR, with or without its ligand; for Normalized Luc. act., normalized to control: relative to control; for luciferase activity normalized to lacZ activity and to a control, mUCP2: mUCP2 promoter-luciferase, CV-1 cells, NHR +/- ligand, control = 1.00
Procedure: as §1, §2, §3

[3] = system: hIRF7 promoter; experiment: NHR-promoter luciferase screen, hIRF7 promoter; assay type: cell-based, human; conditions: for Normalized Luc. act., normalized to control / Luc. act., normalized to lacZ: IRF7 promoter reporter; for Normalized Luc. act., normalized to control: HR without or with its ligand, relative to control; for Luc. act., normalized to lacZ: hormone receptor (HR) without or with its ligand; for hIRF7 promoter reporter activity: transcription factor +/- ligand, control = 1.00
Procedure: as §1, §2, §3

[4] = system: hCYP3A4 promoter; experiment: NHR-promoter luciferase screen, hCYP3A4 promoter; assay type: cell-based, human; conditions: for Luc. act., normalized to lacZ / Normalized Luc. act., normalized to control: CYP3A4 promoter, HR/ligand component; for hCYP3A4 promoter reporter activity: transcription factor +/- ligand, control = 1.00
Procedure: (§4) Briefly, there were co-expressed 50 ng of each NHR/NHR homodimer or NHR/RXR heterodimer with 100 ng promoter/luciferase construct and 50 ng of LacZ (as a control for transfection efficiency) in CV-1 cells using Fugene HD (Roche) as a transfection reagent (alternatively or additionally, a CMV-YFP construct can be used as a transfection control). Each of the nuclear hormone receptors that were used in these experiments was cloned into a pcDNA3.1 vector and comprised a C-terminally linked V5H6 tag.
as §2, §3

[5] = system: RevErba promoter; experiment: NHR-promoter luciferase screen, RevErba (RVRa) promoter; assay type: cell-based; set-up: key to mRevErba promoter reporter activity / Normalized Luc. act., normalized to control: luciferase activity normalized to lacZ and to control (no NHR/ligand); conditions: for Luc. act., normalized to lacZ / Normalized Luc. act., normalized to control / negative reciprocal of normalized Luc. act. (fold repression; Table 33) / normalized Luc. act. on a logarithmic scale (column without head, Table 33): RVRa promoter; for Luc. act., normalized to lacZ / Normalized Luc. act., normalized to control: HR component without or with ligand; for negative reciprocal of normalized Luc. act. (fold repression; Table 33): given only where activity is below control; for normalized Luc. act. on a logarithmic scale (column without head, Table 33): log10 of activity normalized to control; for mRevErba promoter reporter activity: transcription factor +/- ligand, control = 1.00
Procedure: as §4, §2
The control data of each table are shown in their last rows.

[6] = system: hTNFa promoter; experiment: NHR-promoter luciferase screen, hTNFa promoter; assay type: cell-based, human; conditions: for Luc. act., normalized to lacZ / Normalized Luc. act., normalized to control: TNFa promoter, HR component without or with ligand; for hTNFa promoter reporter activity: transcription factor +/- ligand, control = 1.00
Procedure: as §1, §2, §3

Row | Molecule | Luc. act., normalized to lacZ [1] | Normalized Luc. act., normalized to control [1] | luciferase activity normalized to lacZ activity and to a control, hG6PD [1] | Luc. act., normalized to lacZ [2] | Normalized Luc. act., normalized to control [2] | luciferase activity normalized to lacZ activity and to a control, mUCP2 [2] | Normalized Luc. act., normalized to control [3] | Luc. act., normalized to lacZ [3] | hIRF7 promoter reporter activity [3] | Luc. act., normalized to lacZ [4] | Normalized Luc. act., normalized to control [4] | hCYP3A4 promoter reporter activity [4] | Luc. act., normalized to lacZ [5] | Normalized Luc. act., normalized to control [5] | negative reciprocal of normalized Luc. act. (fold repression; Table 33) [5] | normalized Luc. act. on a logarithmic scale (column without head, Table 33) [5] | mRevErba promoter reporter activity [5] | Luc. act., normalized to lacZ [6] | Normalized Luc. act., normalized to control [6] | hTNFa promoter reporter activity [6]
1 | NR4a1: NR4a1 (NR4A1; NUR77), nuclear hormone receptor cDNA driver | 77.6 | 2.1 | 2.07 | 265.6 | 2.4 | 2.42 | 2.3 | 61.0 | 2.31 | 6.2 | 1.4 | 1.40 | 24.6 | 0.9 | −1.1361 | −0.06 | 0.88 | 1575.8 | 1.6 | 1.60
2 | GR: Glucocorticoid Receptor (NR3C1), cDNA driver | 22.3 | 0.6 | 0.60 | 59.4 | 0.5 | 0.54 | 0.7 | 18.9 | 0.72 | 2.0 | 0.5 | 0.45 | 12.3 | 0.4 | −2.269 | −0.36 | 0.44 | 463.3 | 0.5 | 0.47
3 | RXRa: Retinoic X Receptor α (NR2B1), cDNA driver | 45.6 | 1.2 | 1.22 | 137.8 | 1.3 | 1.25 | 1.0 | 27.5 | 1.04 | 1.5 | 0.3 | 0.35 | 26.26 | 0.9 | −1.065 | −0.03 | 0.94 | 954.8 | 1.0 | 0.97
4 | VDR: Vitamin D Receptor (NR1I1), cDNA driver | 43.1 | 1.2 | 1.15 | 136.2 | 1.2 | 1.24 | 1.1 | 30.2 | 1.15 | 5.1 | 1.2 | 1.15 | 27.5 | 1.0 | −1.018 | −0.01 | 0.98 | 986.3 | 1.0 | 1.00
5 | SF-1: Steroidogenic Factor 1 (NR5A1, SF1), cDNA driver | 124.1 | 3.3 | 3.32 | 449.3 | 4.1 | 4.09 | 2.5 | 65.5 | 2.49 | 10.6 | 2.4 | 2.39 | 125.0 | 4.5 | – | 0.65 | 4.47 | 1900.9 | 1.9 | 1.93
6 | B1 | 34.8 | 0.9 | 0.93 | 136.4 | 1.2 | 1.24 | 1.4 | 36.0 | 1.36 | 1.7 | 0.4 | 0.37 | 30.15 | 1.1 | – | 0.03 | 1.08 | 852.9 | 0.9 | 0.87
